Values joined by “and” are separate entries in the source; they are usually repeats but may differ in a detail not shown here. Equal values may be shown once.
Columns and labels:
HIF-1α = assay: Western blot of retinal HIF-1α after I/R; format: in vivo, rat; conditions: intravitreal 1 day pre-ischemia: 10 μM/5 μl JIB-04, 4 μM/5 μl shikonin, 125 μg/5 μl avastin; Vehicle+I/R = 100%
Experimental: (§1) DNL was purchased from the Ko Da Company (Taipei, Taiwan) and dissolved in ddH2O. For the electrophysiological, immuohistochemical and molecular biological studies, drug administration was carried out for seven days and involved various groups, namely a post-ischemia administration (daily high dose of DNL at 1 g/kg/day, I/R+DNL1.0), or pre-ischemia administration (daily high dose of DNL, DNL1.0+I/R; low dose of DNL at 0.5 g/kg/day, DNL0.5+I/R). The rats in the vehicle group that were subjected to ischemia were either post-administered (I/R+Vehicle) or pre-administered with a similar volume of vehicle (Vehicle+I/R) as the DNL group.
(§2) As compared with the Sham, Vehicle+I/R or DNL1.0+I/R group, the ischemic eyes of other groups received intravitreal injections using a 30-gauge needle connected to a 25 μl syringe after the pupil was dilated with 1% tropicamide and 2.5% phenylephrine. […]
(§3) Retinal/cellular samples were retrieved and sonicated in lysis buffer, namely mammalian protein extraction reagent (MPER; HyCell). Identical quantities of denatured proteins (40 μg/30 μl/well) then underwent sodium dodecyl sulfate polyacrylamide gel electrophoresis (SDS-PAGE; Bio-Rad) as described previously. […] The amount of each protein was then evaluated by scanning densitometry.

VEGF = assay: Western blot of retinal VEGF after I/R; format: in vivo, rat; conditions: intravitreal 1 day pre-ischemia: 10 μM/5 μl JIB-04, 4 μM/5 μl shikonin, 125 μg/5 μl avastin; Vehicle+I/R = 100%
Experimental: as §1
(§4) As compared with the Sham, Vehicle+I/R or DNL1.0+I/R group, the ischemic eyes of other groups received intravitreal injections using a 30-gauge needle connected to a 25 μl syringe after the pupil was dilated with 1% tropicamide and 2.5% phenylephrine. Specifically, the ischemic eyes received 1 day pre-ischemia intravitreal administrations of various inhibitors/antibodies, namely 10 μM/5 μl JIB-04 (Sigma-Aldrich), 4 μM/5 μl Shikonin (S7576; Sigma-Aldrich), 125 μg/5 μl Avastin (Hoffmann-La Roche), or 200 μg/5 μl Eylea (Regeneron Pharmaceuticals Inc.). One day after retinal I/R and administration of relevant compounds or after a sham procedure, the animals were sacrificed. Retinal samples were collected in order to measure the protein levels of […], RBP2, PKM2, VEGF-A and PLGF by the western blot assay or ELISA.
(§5) Ischemia induction. Each rat was anesthetized with the above anesthetics and placed in a stereotaxic frame. […]
as §3

RBP2 = assay: Western blot of retinal RBP2 after I/R; format: in vivo, rat; conditions: intravitreal 1 day pre-ischemia: 10 μM/5 μl JIB-04, 4 μM/5 μl shikonin, 125 μg/5 μl avastin; Vehicle+I/R = 100%
Experimental: as §1, §4, §5, §3

PKM2 = assay: Western blot of retinal PKM2 after I/R; format: in vivo, rat; conditions: intravitreal 1 day pre-ischemia: 10 μM/5 μl JIB-04, 4 μM/5 μl shikonin, 125 μg/5 μl avastin; Vehicle+I/R = 100%
Experimental: as §1, §4, §5, §3

[1] = test system: norrie disease protein (NDP); assay: Western blotting of NDP relative to β-actin in RGC-5 cells subjected to OGD; format: cell-based, mouse
Experimental: Moscatilin was purchased from EMMX Biotechnology (EN10271, CA, USA) and dissolved in DMSO (vehicle). […] Moscatilin (0.1 μM) was administered at 1 hour pre-OGD, during OGD, or at 1 hour post-OGD. Its therapeutic effects were evaluated by MTT and Western blotting assays.
(§6) The RCG-5 cell lines were not transformed rat RGCs but, rather, mouse retinal neuronal precursors. OGDs were defined as cells that were maintained in glucose-free DMEM (Thermo Fisher Scientific Inc.) at 37° C. under the hypoxic (ischemic-like) conditions, namely 1% O2 (monitored by an analyzer; Penguin Incubator: control range 1-89%; Astec Company, Kukuoka, Japan), 94% N2 and 5% CO2. There were different groups, consisting of cells that received (i) DMSO in DMEM (control cells; DMSO+DMEM), (ii) DMSO followed by OGD (DMSO+OGD), (iii) OGD and administration of moscatilin (0.1 μM in DMEM) at 1 hour pre-OGD (Pre-OGD Mos 0.1 μM), (iv) during OGD (During OGD Mos 0.1 μM), or (v) at 1 hour post-OGD (Post-OGD Mos 0.1 μM). At the end of the 1 day OGD period, the cell cultures were returned to fresh DMEM for another 24 h. The MTT (viability) and the Western blotting assays (NDP) were then performed.
Retinal/cellular samples were retrieved and sonicated in lysis buffer, namely mammalian protein extraction reagent (MPER; HyCell). Identical quantities of denatured proteins (40 μg/30 μl/well) then underwent sodium dodecyl sulfate polyacrylamide gel electrophoresis (SDS-PAGE; Bio-Rad) as described previously. After separation, the protein bands were transferred to a polyvinylidene difluoride (PVDF) membrane and then immersed for 12 hours at 4° C. with the following primary antibodies, mouse monoclonal anti-β-actin antibody (AC-15; 1:2,000; ab6276)/anti-HIF-1α antibody (1:200; H1alpha67-ChIP Grade; Abcam Inc.), rabbit polyclonal anti-VEGF antibody (A-20; 1:200; sc-152)/anti-PKM2 antibody (1:500; ab38237), or rabbit monoclonal anti-RBP2 antibody (ab177486; 1:1000; Abcam Inc.). […] The amount of each protein was then evaluated by scanning densitometry.

[2] = MTT cell viability assay of RGC-5 cells subjected to oxygen glucose deprivation (OGD); format: cell-based, mouse; conditions: mouse, RGC-5 cells subjected to oxygen glucose deprivation (OGD), cytotoxic effect
Experimental: (§7) Moscatilin was purchased from EMMX Biotechnology (EN10271, CA, USA) and dissolved in DMSO (vehicle). […] […] Its therapeutic effects were evaluated by MTT and Western blotting assays.
as §6, with “([…]),” for “(iii) OGD and administration of moscatilin (0.1 μM in DMEM) at 1 hour pre-OGD (Pre-OGD Mos 0.1 μM),”
(§8) Mitochondria NADPH dependent oxidoreductases were capable of reducing MTT to form formazan. Therefore, an increase in the amount of dark purple formazan corresponded to greater cell viability. MTT (0.5 mg/mL; Sigma-Aldrich) was added and allowed to react for 3 hr at 37° C. to the 96-well plates containing the original 100 μL of cells. The reduced MTT was then solubilized by adding 100 μL DMSO. After agitation of the plates, the OD of the solubilized formazan was measured using an ELISA reader (Synergy H1 Multi-Mode Reader BioTek Instruments) at 562 nm. Cell viability was expressed as OD values relative to the control (100%).

RGC-5 cells = assay: as above; format: cell-based, mouse; conditions: Mus musculus
Experimental: as §7
as §6, with “([…]),” for “(iii) OGD and administration of moscatilin (0.1 μM in DMEM) at 1 hour pre-OGD (Pre-OGD Mos 0.1 μM),”
as §8

two cell lines = conditions: cited from earlier work
[3] = test system: placental growth factor (PLGF); assay: ELISA of retinal PLGF after I/R; format: in vivo, rat; conditions: pre-ischemia intravitreal 200 μg/5 μl Eylea (Eylea+I/R); Vehicle+I/R 39.53±5.25
Experimental: as §1, §2
The level of PLGF was determined using ELISA. […] The total protein in each sample was determined using a bicinchoninic acid protein kit (Thermo Fisher Scientific). The PLGF levels in the supernatant were measured using a PLGF ELISA kit (CSB-E07400r; Cusabio Life Scince) accordingly. […] The maximum absorbance (OD) at 450 nm was detected immediately using a microplate reader (Synergy H1 Hybrid Multi-Mode Reader, Biotek ELx800). […]

In the case of `Clc1ccc(N/N=C(\c2ccccc2)c2ccccn2)nc1` [JIB-04], the “level of HIF-1α (ratio to β-actin)” value (HIF-1α) is reported as 53.98±2.29%, the “level of VEGF (ratio to β-actin)” value (VEGF) is reported as 27.82±1.21% and the “level of RBP2 (ratio to β-actin)” value (RBP2) is reported as 5.83±1.43%. The “level of PKM2 (ratio to β-actin)” value (PKM2) was 60.36±7.59%.
With `COc1cc(CCc2cc(OC)c(O)c(OC)c2)ccc1O` [moscatilin] the “amount of NDP relative to β-actin” value ([1]; 0.1 μM moscatilin 1 hour pre-OGD, DMSO+DMEM = 100%, DMSO+OGD 44.54±3.15%) was 108.38±29.33%, the “amount of NDP relative to β-actin” value ([1]; 0.1 μM moscatilin 1 h post-OGD) was 54.36±3.88% and the “amount of NDP relative to β-actin” value ([1]; 0.1 μM moscatilin during OGD) was 48.99±9.89%. It also gave a viability at 10 μM ([2]; 10 μM moscatilin pre-OGD, n=4) of 15.4 ± 3.09%, a viability at 100 μM ([2]; 100 μM moscatilin pre-OGD, n=1) of 12.5% and a viability at 0.1 µM (RGC-5 cells; RGC5, 0.1 μM moscatilin during OGD, P=0.31 vs DMSO+OGD) of 56 ± 4.08%. For the same compound, the viability at 1 µM (RGC-5 cells; RGC5, 1 μM moscatilin pre-OGD, n=4) was 66.4 ± 9.35%, the viability at 0.1 µM (RGC-5 cells; RGC5, 1 h, 0.1 μM moscatilin at 1 hour post-OGD, P=0.41 vs DMSO+OGD) was 52.6 ± 4.16% and the viability at 0.1 µM (RGC-5 cells; RGC5, 1 h, 0.1 μM moscatilin at 1 hour pre-OGD, relative to DMSO+DMEM control (100%), DMSO+OGD 53.66±2.67%) was 62.6 ± 4.35%. For the same compound, the IC50 (two cell lines; 24 h, two cell lines, respectively, previous reports, read-out: IC50 of reduced cell viability) was 7 µM and 6.7 µM and the toxicity to cells (two cell lines; concentrations equal to or less than 1 μM, previous researches) was “non-toxic”.
In the case of `CC(C)=CC[C@@H](O)C1=CC(=O)c2c(O)ccc(O)c2C1=O` [shikonin], the “level of HIF-1α (ratio to β-actin)” value (HIF-1α) is reported as 42.65±0.76%, the “level of VEGF (ratio to β-actin)” value (VEGF) is reported as 57.55±9.40% and the “level of RBP2 (ratio to β-actin)” value (RBP2) is reported as 3.40±0.23%. For the same compound, the “level of PKM2 (ratio to β-actin)” value (PKM2) was 44.94±10.91%.
With “Eylea: VEGF trap/anti-PLGF (Regeneron Pharmaceuticals Inc.)” the “level of PLGF” value [3] was 6.44 ± 0.60 pg/mL.
In the case of “avastin: VEGF antibody (Hoffmann-La Roche)”, the “level of VEGF (ratio to β-actin)” value (VEGF) is reported as 5.38±2.51%, the “level of RBP2 (ratio to β-actin)” value (RBP2) is reported as 78.35±3.29% and the “level of PKM2 (ratio to β-actin)” value (PKM2) is reported as 84.44±4.53%.
